The source of these data is patent US20060165717A1 (priority 2005, published 2006).

The test relates to Balb/c mice. The experiment in a line: Immunization of mice with detoxified TAT vaccine compositions; TAT-specific IgG by ELISA. It is filed as in vivo. To be noted: 2 subcutaneous injections D0, D21, 1 μg TAT antigen. The method, then:
Vaccine compositions comprising, as antigen, a detoxified TAT III B protein are prepared. The TAT protein was detoxified by means of an alkylation reaction in an alkaline medium using iodoacetamide under the following conditions: number of micromoles of iodoacetamide=200×number of micromoles of TAT+number of micromoles of DTT. This detoxified protein and the method for preparing it are described in detail in application WO 99/33346, where it is identified under the term “carboxymethylated TAT”.
Immunizing doses having the following composition are the obtained:
Adult Balb/c mice and 1-week-old “newborn” Balb/c mice are provided and are divided up into groups of 6 to 8 (groups of young mice) or of 5 to 6 (groups of adult mice). Experiments are carried out with 2 subcutaneous injections of the same vaccine formulation at D0 and at D21. Blood samples are taken after the booster injection. The TAT-specific immunoglobulins are assayed by the ELISA technique. A total of 10 to 40 mice per formulation was tested in several independent experiments: for the DC-Chol: 27 adults, 38 newborns; for the aluminum oxyhydroxide: 18 adults, 22 newborns; for the emulsion: 10 adults and 16 newborns; and in saline solution: 10 adults and 15 newborns. […]
(An ELISA detects its analyte on a solid surface through an enzyme-linked reagent.)

Consider “3β-[N-(N′,N′-dimethyl-aminoethane)carbamoyl]cholesterol [DCchol]”, for which the “adjuvant effect on TAT-specific total IgG response (FIG. 1), in words” value (adult Balb/c mice) is “capable of increasing the immune response” and the “adjuvant effect on TAT-specific total IgG response (FIG. 1), in words” value (newborn (1-week-old) Balb/c mice) was “capable of increasing the immune response”.
